We go through two compounds from patent publication US20240228986A1, “ENGINEERED CELLS, ENZYMES, AND METHODS FOR PRODUCING CANNABINOIDS” (priority 2021, published 2024).

In general, Km refers to the concentration of substrate that gives half-maximal velocity.

The assay has as its system MPT21 (SEQ ID NO: 22; chimera of MPT1 and MPT4) as fusion GPS1.1-F11-MPT21 (SEQ ID NO: 25), expressed in Yarrowia. As to the kind of experiment: In vitro activity assay with microsomes of GPS1.1-F11-MPT21. The settings on record: microsomes from Yarrowia sCL-SE-0128 + pCL-SE-0664; varying concentrations of OA and DVA; enzyme not purified to homogeneity. It is filed as biochemical. The method, then: Yarrowia cells sCL-SE-0128 expressing the fusion of GPS1.1 with MPT4 (pCL-SE-0406) and MPT21 (pCL-SE-0664) were grown at 30 mL culture at 30 C for 2 days in YNB with 20% glucose. The cells were collected by centrifugation, washed with homogenization buffer (MAK340-1KT Sigma Aldrich) and were resuspended in 2 mL of homogenization buffer. The suspended cells were transferred to 5 mL tubes containing 1 mL of glass beads and were homogenized by shaking for 5 min at max speed in a shaker (Retsch MM400). The lysed cells were transferred to new tubes and microsomes were prepared as described in the kit (MAK340-1KT). Activity assays were performed using microsomes from both enzymes and varying concentrations of OA and DVA.

For the compound `CCCc1cc(O)cc(O)c1C(=O)O` [DVA, divarinic acid], the Km turned out to be 62.2 µM.
The figure for `CCCCCc1cc(O)cc(O)c1C(=O)O` [OA, olivetolic acid] is 20.9 µM.
